Data taken from EP0631668B1, “DETERMINATION OF BINDING AFFINITY USING MAGNETICALLY-LABELED BINDING MEMBERS” (ABBOTT LABORATORIES, priority 1992, dated 1993).

Molecular target: T1, streptavidin-coated paramagnetic microparticle (Streptomyces avidinii, UniProt P22629)
T1 construct: purchased Advanced Magnetics, Cambridge, MA
Assay: Magnetically assisted avidin-biotin binding assay (competitive inhibition, balance readout)
Conditions: free biotin concentration 125 nanograms/milliliter (80 µl assayed); 12 milligrams at 0 nanograms/milliliter; Figure 6
Description: The following reagents and samples were used in a binding assay:
The magnetically-labeled reagent was a streptavidin-coated paramagnetic microparticle (Advanced Magnetics, Cambridge, MA; average one micron in diameter, with 5x10^8 particles per mg, supplied as a 5 mg/ml suspension).
Incubation was continued at 37° C for an additional 45 minutes. The wells were then emptied and washed with PBS using a wash bottle.
The magnetically-labeled reagent was first combined with the test sample, thereby forming a reaction mixture which was incubated for one hour at 37° C. […] The unbound magnetically-labeled reagent was removed from the reaction mixture by means of magnetic attraction.

T1 sequence (P22629 25-183): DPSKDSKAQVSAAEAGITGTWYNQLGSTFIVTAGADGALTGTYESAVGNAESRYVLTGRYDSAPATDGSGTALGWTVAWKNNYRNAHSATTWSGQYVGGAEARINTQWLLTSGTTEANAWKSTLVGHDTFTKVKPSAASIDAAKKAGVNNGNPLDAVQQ

In the case of O=C(O)CCCC[C@@H]1SC[C@@H]2NC(=O)N[C@@H]21 [biotin], the “force change detected by the balance means” value is reported as “zero”.
